Experimental data published in PMC5496928, “Data driven polypharmacological drug design for lung cancer: analyses for targeting ALK, MET, and EGFR” (Journal of Cheminformatics, 2017).

How the values were obtained:
EGFR (L858R) [1] = target: T1, EGFR (L858R) (Homo sapiens, UniProt P00533, L858R); assay: scanKINETIC binding kinetics assay (DiscoverX); conditions: for Percentage after 30× dilution, EGFR LR: apparent residual compound relative to bound value at 1 h, significantly higher than 3% indicates slow dissociation; for Percentage comparing 1 or 6 h incubation, EGFR LR: percentages significantly lower than 100% indicate slow association
T1 construct: purchased DiscoverX
From the text: (§1) Tests of the compounds confirm suitability for ALK + MET + EGFR polypharmacology optimization (Table 1). […] For compound 1, ^3 with the acrylamide function at the site corresponding to that of WZ4002, both ALK and MET binding were inhibited more weakly compared to EGFR binding. […] The sensitivity to the assay conditions seen for both forms of EGFR and uniformly tighter binding under the new assay conditions may indicate tighter binding for ALK and MET under these altered assay conditions as well.
(§2) The kinetics testing results (Table 1) support several further important conclusions. […] The simultaneous appearance of slow association and slow dissociation complicates the interpretation of the results, but the percentage values shown in Table 1 show the apparent residual amounts of compounds relative to bound values at 1 h. These values indicate retention of roughly half of compound 1, and nearly all of compound 2a, after dilution. […] The similarity of compound 2a to 2b and 1 with respect to structure and binding strength, differing only in the linker to the acrylamide binding group, is further evidence that that it is the covalent binding property that determines the difference in binding kinetics, rather than e.g. a slow conformational change of the target enzymes.
(§3) The three tricyclic compounds (1, 2a and 2b) were purchased from the company ARTTSynthesis (www.arttsynthesis.com). Tests for binding properties were performed by the company DiscoverX (www.discoverx.com), using a concentration of 1 µM against ALK, MET and EGFR variants L858R and L858R_T790M) using KdELECT and scanKINETIC from DiscoverX [124, 125].

EGFR (L858R, T790M) [2] = target: T2, EGFR (L858R, T790M) (Homo sapiens, UniProt P00533, L858R/T790M); assay: scanKINETIC binding kinetics assay (DiscoverX); conditions: for Percentage after 30× dilution, EGFR LR+TM: apparent residual compound relative to bound value at 1 h, significantly higher than 3% indicates slow dissociation; for Percentage comparing 1 or 6 h incubation, EGFR LR+TM: percentages significantly lower than 100% indicate slow association
T2 construct: purchased DiscoverX
From the text: as §1, §2, §3

[3] = system: EGFR (L858R) and EGFR (L858R, T790M); assay: scanKINETIC conclusions stated in text for both EGFR forms together; format: binding; conditions: for Dissociation behaviour: 30-fold dilution following one hour of incubation; for Association behaviour: comparing 1-h and 6-h incubation times; for Covalent binding to EGFR (both forms): interpretation of kinetics data; for Retention of compound after dilution: relative to bound values at 1 h
From the text: as §1, §2, §3

MET [4] = target: T3, MET (Homo sapiens, UniProt P08581); assay: KdELECT binding assay (DiscoverX); conditions: read-out: Kd study, MET
T3 construct: purchased DiscoverX
T3 sequence (P08581 25-1390): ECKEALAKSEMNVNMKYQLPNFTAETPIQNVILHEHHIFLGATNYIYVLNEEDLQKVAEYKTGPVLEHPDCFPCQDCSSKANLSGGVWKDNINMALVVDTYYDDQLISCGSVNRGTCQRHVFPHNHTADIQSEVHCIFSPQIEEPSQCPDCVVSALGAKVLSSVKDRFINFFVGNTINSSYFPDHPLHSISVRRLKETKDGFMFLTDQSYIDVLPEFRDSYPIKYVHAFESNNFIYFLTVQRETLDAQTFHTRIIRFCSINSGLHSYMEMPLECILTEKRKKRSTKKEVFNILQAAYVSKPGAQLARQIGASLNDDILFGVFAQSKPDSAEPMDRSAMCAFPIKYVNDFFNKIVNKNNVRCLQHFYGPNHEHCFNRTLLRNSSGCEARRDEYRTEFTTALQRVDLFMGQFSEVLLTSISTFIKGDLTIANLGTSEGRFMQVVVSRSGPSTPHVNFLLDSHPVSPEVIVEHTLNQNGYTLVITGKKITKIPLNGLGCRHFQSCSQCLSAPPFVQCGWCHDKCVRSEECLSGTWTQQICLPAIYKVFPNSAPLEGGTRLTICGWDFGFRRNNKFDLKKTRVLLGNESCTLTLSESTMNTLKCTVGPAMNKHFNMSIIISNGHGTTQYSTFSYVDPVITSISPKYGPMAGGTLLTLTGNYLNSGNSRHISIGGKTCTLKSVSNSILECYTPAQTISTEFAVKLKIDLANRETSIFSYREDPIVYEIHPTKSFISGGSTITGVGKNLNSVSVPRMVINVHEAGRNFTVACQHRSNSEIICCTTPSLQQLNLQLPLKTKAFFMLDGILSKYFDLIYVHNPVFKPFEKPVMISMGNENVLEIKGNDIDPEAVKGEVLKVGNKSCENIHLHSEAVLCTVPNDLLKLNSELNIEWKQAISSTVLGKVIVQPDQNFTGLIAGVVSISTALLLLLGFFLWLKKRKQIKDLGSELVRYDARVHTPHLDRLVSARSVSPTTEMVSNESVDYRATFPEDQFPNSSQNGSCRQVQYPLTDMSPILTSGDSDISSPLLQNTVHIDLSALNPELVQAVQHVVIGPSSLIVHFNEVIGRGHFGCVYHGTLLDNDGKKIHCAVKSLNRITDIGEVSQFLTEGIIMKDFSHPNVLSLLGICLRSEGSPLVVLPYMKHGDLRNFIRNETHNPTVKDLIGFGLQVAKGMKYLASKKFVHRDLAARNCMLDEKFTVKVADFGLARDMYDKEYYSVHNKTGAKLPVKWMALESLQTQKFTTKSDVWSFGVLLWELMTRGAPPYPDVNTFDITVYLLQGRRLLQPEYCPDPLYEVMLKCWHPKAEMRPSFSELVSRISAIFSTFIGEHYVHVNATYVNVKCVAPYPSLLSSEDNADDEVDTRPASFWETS
From the text: as §1, §3

EGFR (L858R) [5] = target: T1, EGFR (L858R); assay: KdELECT binding assay (DiscoverX); conditions: read-out: Kd study, EGFR LR
From the text: as §1, §3

EGFR (L858R, T790M) [6] = target: T2, EGFR (L858R, T790M); assay: KdELECT binding assay (DiscoverX); conditions: read-out: Kd study, EGFR LR+TM
From the text: as §1, §3

ALK [7] = target: T4, ALK (Homo sapiens, UniProt Q9UM73); assay: KdELECT binding assay (DiscoverX); conditions: read-out: Kd study, ALK
T4 construct: purchased DiscoverX
T4 sequence (Q9UM73 19-1620): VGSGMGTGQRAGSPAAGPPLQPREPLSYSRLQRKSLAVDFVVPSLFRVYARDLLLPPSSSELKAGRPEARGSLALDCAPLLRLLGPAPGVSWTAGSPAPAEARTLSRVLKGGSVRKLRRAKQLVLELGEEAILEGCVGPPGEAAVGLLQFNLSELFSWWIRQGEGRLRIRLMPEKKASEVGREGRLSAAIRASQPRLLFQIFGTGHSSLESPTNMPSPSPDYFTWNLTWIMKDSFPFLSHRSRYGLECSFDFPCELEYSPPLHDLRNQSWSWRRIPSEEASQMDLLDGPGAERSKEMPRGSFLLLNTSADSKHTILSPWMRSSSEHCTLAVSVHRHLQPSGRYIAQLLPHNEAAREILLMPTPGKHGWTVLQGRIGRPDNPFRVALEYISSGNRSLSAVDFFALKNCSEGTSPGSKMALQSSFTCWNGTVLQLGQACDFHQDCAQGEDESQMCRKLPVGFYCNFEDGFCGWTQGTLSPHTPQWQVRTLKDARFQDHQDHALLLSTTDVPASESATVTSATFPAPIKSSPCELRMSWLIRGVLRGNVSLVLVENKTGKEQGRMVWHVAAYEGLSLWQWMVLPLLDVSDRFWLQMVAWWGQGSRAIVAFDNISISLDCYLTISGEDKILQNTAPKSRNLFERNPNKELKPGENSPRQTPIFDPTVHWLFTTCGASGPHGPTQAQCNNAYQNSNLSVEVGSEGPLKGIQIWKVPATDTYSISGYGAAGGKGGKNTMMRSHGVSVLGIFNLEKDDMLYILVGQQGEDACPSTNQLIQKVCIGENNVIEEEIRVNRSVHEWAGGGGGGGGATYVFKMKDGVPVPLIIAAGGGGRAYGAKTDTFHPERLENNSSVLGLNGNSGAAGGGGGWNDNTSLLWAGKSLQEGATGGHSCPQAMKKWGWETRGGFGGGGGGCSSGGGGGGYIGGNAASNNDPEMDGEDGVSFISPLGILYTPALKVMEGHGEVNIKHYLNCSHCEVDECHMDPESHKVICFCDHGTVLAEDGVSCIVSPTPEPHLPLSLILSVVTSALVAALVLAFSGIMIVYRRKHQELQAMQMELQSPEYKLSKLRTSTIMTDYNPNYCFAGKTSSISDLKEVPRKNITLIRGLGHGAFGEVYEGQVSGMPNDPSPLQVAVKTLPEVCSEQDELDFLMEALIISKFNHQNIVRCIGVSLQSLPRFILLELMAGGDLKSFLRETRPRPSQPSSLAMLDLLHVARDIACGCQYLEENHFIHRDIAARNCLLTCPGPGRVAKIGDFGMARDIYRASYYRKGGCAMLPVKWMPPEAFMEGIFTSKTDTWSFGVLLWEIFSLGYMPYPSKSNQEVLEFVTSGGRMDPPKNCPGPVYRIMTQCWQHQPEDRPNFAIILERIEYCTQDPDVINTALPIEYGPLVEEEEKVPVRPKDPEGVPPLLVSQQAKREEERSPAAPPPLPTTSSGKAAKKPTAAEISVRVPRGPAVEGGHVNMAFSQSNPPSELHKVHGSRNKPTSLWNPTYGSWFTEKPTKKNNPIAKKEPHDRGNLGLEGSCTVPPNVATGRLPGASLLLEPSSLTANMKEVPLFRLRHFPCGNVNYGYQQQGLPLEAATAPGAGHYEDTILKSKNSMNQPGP
From the text: as §1, §3

MET mutant Y1230C = system: MET mutant Y1230C; design: method as in PMID 19459657; conditions: cellular assay; cited from earlier work
MET [8] = target: T3, MET; conditions: cited from earlier work
ALK [9] = target: T4, ALK; design: method as in PMID 20033049; conditions: cited from earlier work
EGFR = system: EGFR; design: method as in PMID 20033049; conditions: cited from earlier work
[10] = Apparent Kd, EGFR LR (30× dilution), 30× dilution after 1 h incubation
[11] = Kd, EGFR LR (1 h), scanKINETIC, 1 h incubation
[12] = Kd, EGFR LR (6 h), scanKINETIC, 6 h incubation
[13] = Apparent Kd, EGFR LR+TM (30× dilution), 30× dilution after 1 h incubation
[14] = Kd, EGFR LR+TM (1 h), scanKINETIC, 1 h incubation
[15] = Kd, EGFR LR+TM (6 h), scanKINETIC, 6 h incubation

Row | SMILES | Kd (EGFR (L858R) [1]; [10]) [nM] | Kd (EGFR (L858R) [1]; [11]) [nM] | Kd (EGFR (L858R) [1]; [12]) [nM] | Percentage after 30× dilution, EGFR LR (EGFR (L858R) [1]) [%] | Percentage comparing 1 or 6 h incubation, EGFR LR (EGFR (L858R) [1]) [%] | Kd (EGFR (L858R, T790M) [2]; [13]) [nM] | Kd (EGFR (L858R, T790M) [2]; [14]) [nM] | Kd (EGFR (L858R, T790M) [2]; [15]) [nM] | Percentage after 30× dilution, EGFR LR+TM (EGFR (L858R, T790M) [2]) [%] | Percentage comparing 1 or 6 h incubation, EGFR LR+TM (EGFR (L858R, T790M) [2]) [%] | Dissociation behaviour [3] | Association behaviour [3] | Covalent binding to EGFR (both forms) [3] | Retention of compound after dilution [3] | Kd (MET [4]) [nM] | Kd (EGFR (L858R) [5]) [nM] | Kd (EGFR (L858R, T790M) [6]) [nM] | Kd (ALK [7]) [nM] | further results
1 | C=CC(=O)Nc1cccc(Nc2ncc(Cl)c(Nc3ccccc3)n2)c1 [compound 2a, N‐(3‐{[5‐chloro‐4‐(phenylamino)pyrimidin‐2‐yl]amino}phenyl)prop‐2‐enamide] | 340 | 340 | 47 | 100 | 14 | 56 | 56 | 8 | 100 | 14 | slow dissociation behavior | relatively slow-binding | able to bind covalently | nearly all | 250 | 710 | 110 | 340 | –
2 | C=CC(=O)Nc1cccc(Nc2nc(Nc3ccccc3)ncc2Cl)c1 [compound 1, N‐(3‐{[5‐chloro‐2‐(phenylamino)pyrimidin‐4‐yl]amino}phenyl)prop‐2‐enamide] | – | 57 | 5.7 | – | 10 | – | 25 | 3.2 | – | 13 | slow dissociation behavior | relatively slow-binding | – | roughly half | > 1000 | 420 | 110 | 800 | –
3 | C=CC(=O)NCc1cccc(Nc2ncc(Cl)c(Nc3ccccc3)n2)c1 [compound 2b, N‐[(3‐{[5‐chloro‐4‐(phenylamino)pyrimidin‐2‐yl]amino}phenyl)methyl]prop‐2‐enamide] | 2900 | 170 | 110 | 5.9 | 65 | 4100 | 58 | 100 | 1.4 | 170 | – | fast association | no evidence of covalent binding | – | 330 | 780 | 270 | 390 | Time within which binding is complete [3]: ≤ 1 h; Time within which dissociation is complete ([3]; after 30-fold dilution): ≤ 5 h
4 | C[C@@H](Oc1cc(-c2cnn(C3CCNCC3)c2)cnc1N)c1c(Cl)ccc(F)c1Cl [crizotinib] | – | – | – | – | – | – | – | – | – | – | – | – | – | – | – | – | – | – | Weakening of binding to MET mutant Y1230C (MET mutant Y1230C): 15 fold
5 | C=CC(=O)Nc1cccc(Oc2nc(Nc3ccc(N4CCN(C)CC4)cc3OC)ncc2Cl)c1 [WZ4002] | – | – | – | – | – | – | – | – | – | – | – | – | – | – | – | – | – | – | Binding to MET (MET [8]): known to bind; Binding to ALK (ALK [9]): known to bind; Covalent binding to EGFR (EGFR): known to bind covalently to EGFR
